Reference: US20130096159A1, “INHIBITORS OF HUMAN 12-LIPOXYGENASE” (The United States of America, as represented the Secretary …, priority 2010, published 2013)

Legend:
[1] = tested on: Caco-2; assay: Caco-2 permeability; type: in vitro ADME
[2] = molecular target: T1, human 5-lipoxygenase (Homo sapiens, UniProt P09917); assay: 5hLO inhibition screen; type: biochemical; settings: Table 2
T1 sequence (P09917 1-674): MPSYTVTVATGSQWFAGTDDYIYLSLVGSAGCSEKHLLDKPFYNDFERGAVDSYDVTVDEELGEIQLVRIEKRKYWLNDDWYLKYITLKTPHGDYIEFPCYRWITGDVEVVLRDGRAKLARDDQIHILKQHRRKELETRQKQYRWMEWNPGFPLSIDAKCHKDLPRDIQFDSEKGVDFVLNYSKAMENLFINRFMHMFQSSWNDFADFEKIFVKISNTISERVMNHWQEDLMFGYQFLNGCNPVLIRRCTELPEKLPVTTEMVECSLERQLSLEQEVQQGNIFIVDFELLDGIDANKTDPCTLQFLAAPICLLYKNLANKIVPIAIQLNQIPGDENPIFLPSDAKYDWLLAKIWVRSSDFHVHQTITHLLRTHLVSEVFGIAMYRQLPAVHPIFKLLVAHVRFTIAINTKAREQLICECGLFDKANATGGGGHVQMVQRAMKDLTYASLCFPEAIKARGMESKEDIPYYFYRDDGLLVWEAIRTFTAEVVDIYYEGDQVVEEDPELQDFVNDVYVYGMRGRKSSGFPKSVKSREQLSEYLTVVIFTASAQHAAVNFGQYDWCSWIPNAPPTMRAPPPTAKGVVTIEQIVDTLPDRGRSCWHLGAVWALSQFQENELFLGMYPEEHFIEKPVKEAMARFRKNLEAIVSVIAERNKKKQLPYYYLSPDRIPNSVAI

[3] = molecular target: T2, human 12-lipoxygenase (Homo sapiens, UniProt P18054); assay: human 12-lipoxygenase inhibition (12hLO) assay, absorbance at 234 nm; type: biochemical
T2 sequence (P18054 1-663): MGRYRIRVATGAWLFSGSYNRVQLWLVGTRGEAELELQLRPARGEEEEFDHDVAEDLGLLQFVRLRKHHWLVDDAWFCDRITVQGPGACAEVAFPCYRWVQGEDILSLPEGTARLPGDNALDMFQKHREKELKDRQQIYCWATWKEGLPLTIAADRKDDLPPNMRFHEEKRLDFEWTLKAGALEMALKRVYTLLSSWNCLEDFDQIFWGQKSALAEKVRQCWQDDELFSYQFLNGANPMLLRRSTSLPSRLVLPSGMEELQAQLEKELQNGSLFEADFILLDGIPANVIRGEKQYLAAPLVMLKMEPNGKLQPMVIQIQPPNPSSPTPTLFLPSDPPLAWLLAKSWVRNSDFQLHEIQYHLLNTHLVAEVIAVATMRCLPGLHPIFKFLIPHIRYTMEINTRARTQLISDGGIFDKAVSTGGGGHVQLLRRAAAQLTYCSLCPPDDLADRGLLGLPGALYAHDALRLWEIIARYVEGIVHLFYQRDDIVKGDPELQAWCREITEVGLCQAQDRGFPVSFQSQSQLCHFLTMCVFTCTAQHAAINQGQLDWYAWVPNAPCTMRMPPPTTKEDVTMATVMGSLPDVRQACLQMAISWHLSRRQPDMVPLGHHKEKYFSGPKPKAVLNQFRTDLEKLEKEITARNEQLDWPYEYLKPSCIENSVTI

[4] = in vivo PK, IP administration in CD1 mice; settings: IP 30 mg/kg
[5] = aqueous kinetic solubility; type: physicochemical
[6] = mouse plasma stability; type: in vitro ADME
[7] = mouse liver microsome stability; type: in vitro ADME; settings: liver microsomes, read-out: mouse liver microsome stability (T1/2)
[8] = PBS buffer stability; type: physicochemical
[9] = molecular target: T3, recombinant human cPLA2 (Homo sapiens, UniProt P47712); assay: cPLA2 enzymatic activity assay; type: biochemical; settings: 5 min of incubation, FIG. 8
T3 sequence (P47712 1-749): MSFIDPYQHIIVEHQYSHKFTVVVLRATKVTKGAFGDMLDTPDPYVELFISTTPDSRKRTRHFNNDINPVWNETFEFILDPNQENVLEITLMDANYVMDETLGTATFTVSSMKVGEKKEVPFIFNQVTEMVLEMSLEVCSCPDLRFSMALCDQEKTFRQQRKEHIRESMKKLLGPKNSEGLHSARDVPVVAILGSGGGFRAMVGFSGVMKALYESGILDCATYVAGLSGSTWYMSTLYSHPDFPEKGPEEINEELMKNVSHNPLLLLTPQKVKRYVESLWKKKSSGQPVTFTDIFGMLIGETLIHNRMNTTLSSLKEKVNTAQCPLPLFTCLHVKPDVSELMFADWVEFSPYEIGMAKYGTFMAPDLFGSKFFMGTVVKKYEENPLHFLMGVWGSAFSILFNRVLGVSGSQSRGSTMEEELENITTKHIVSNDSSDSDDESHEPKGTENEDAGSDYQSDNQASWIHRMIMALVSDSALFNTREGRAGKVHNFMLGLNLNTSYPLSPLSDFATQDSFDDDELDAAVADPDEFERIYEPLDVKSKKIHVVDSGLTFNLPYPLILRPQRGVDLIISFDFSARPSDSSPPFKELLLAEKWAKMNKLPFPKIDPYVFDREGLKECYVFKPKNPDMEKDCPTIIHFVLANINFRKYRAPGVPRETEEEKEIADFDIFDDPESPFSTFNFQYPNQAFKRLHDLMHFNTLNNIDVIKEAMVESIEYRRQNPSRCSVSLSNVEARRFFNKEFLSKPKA
Experimental: A., et al., Biochemistry, 2011, 50: 1731-1738 with the following differences. The inhibitors in solution in DMSO were added at a final concentration of 50 μM right before the recombinant enzyme was added to initiate the reaction. After 5 min of incubation, the products of reaction were analyzed, and the results depicted in FIG. 8.

[10] = tested on: Human islets; assay: gene expression in cytokine-stimulated human islets, Taqman real time PCR; type: cell-based; settings: TNF-α
Experimental: Human islets were incubated for 22 hours following stimulation with the inflammatory cytokines IFN-γ, TNF-α, and IL-1-β alone or in the presence of compound 1 or compound 9. Control islets were incubated for 22 hours in the absence of inflammatory cytokines or compounds. Following the incubation, gene expression for 12-LO, 15-LO, 5-LO, IL-12p40, and IFN-γ were determined using Taqman real time PCR.

[11] = molecular target: T4, human 15-lipoxygenase-2 (Homo sapiens, UniProt O15296); assay: 15hLO-2 inhibition screen; type: biochemical; settings: Table 2
T4 sequence (O15296 1-676): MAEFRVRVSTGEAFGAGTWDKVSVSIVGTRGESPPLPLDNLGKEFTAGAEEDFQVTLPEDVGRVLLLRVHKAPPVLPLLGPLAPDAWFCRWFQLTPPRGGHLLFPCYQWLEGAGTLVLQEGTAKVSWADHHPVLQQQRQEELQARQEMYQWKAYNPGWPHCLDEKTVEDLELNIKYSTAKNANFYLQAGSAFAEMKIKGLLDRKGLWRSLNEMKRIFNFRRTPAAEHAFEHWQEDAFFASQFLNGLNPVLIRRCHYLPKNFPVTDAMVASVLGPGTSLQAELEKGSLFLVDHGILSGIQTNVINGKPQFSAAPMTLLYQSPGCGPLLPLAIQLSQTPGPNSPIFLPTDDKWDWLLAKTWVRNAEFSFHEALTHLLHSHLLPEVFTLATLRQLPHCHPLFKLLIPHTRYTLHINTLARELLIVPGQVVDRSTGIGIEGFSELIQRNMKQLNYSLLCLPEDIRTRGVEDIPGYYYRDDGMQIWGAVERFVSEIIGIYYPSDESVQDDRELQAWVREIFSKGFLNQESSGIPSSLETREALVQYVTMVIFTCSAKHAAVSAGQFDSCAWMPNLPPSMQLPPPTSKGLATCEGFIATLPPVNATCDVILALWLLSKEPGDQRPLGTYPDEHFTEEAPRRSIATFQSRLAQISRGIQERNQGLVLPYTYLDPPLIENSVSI

[12] = relative to control islets, IFN-γ, IL-1-β stimulation, 22 hours

CC(=O)NC(c1cccs1)c1cc(Br)c2cccnc2c1O (single isomer, unassigned) [Compound 36, N-((5-bromo-8-hydroxyquinolin-7-yl)(thiophen-2-yl)methyl)acetamide]
cell permeability (in words) [1]: good | Caco-2 (Papp 10^−6 m/s @ pH 7.4) ([1]; pH 7.4): 8.8 10^−6 m/s | IC50 [2]: > 250 µM | times more potent as an inhibitor of 12-lipoxygenase than the dextrorotatory enantiomer ([3]; levorotatory vs dextrorotatory enantiomer): more than 58 times | crossing of the blood-brain barrier [4]: does not efficiently cross the blood-brain barrier | t1/2 (h) (brain) ([4]; brain): 1.7 h | t1/2 (h) (plasma) ([4]; plasma): 3.5 h | tmax (h) [plasma] ([4]; plasma): 0.25 h | Tmax ([4]; mouse, brain): 30 min | Kp at 24 h ([4]; mouse, brain/plasma, average [b/p] ratio over 8 time points (24 h period)): 0.01 | aqueous kinetic solubility (in words) [5]: acceptable | stability in mouse plasma (in words) [6]: excellent | half-life [7]: < 10 min | stability in PBS buffer (in words) [8]: excellent | PBS-pH 7.4 stability: % remaining after 48 h ([8]; PBS pH 7.4, 48 h): 100%

O=c1cc(-c2ccccc2)oc2cc(O)c(O)c(O)c12 [baicalein, reference compound]
inhibition at 50 µM [9]: ~60%

CCC(=O)NC(c1ccco1)c1cc(Cl)c2cccnc2c1O (stereo not drawn) [Compound 9, N-((5-chloro-8-hydroxyquinolin-7-yl)(furan-2-yl)methyl)propionamide]
IC50 [2]: > 150 µM | selectivity for inhibition of human 12-lipoxygenase as compared with human 5-lipoxygenase, 15-lipoxygenase-1 and 15-lipoxygenase-2 [3]: exhibited selectivity | IC50 ([3]; 12hLO Inhibition, Table 1, read-out: IC50 (μM) [± SD μM]): 1 µM | reduction in IFN-γ expression ([10]; induced by IFN-γ, IL-1-β): 4 fold | reduction in IL-12p40 mRNA expression ([10]; induced by IFN-γ, IL-1-β): 40 fold | Change in Gene Expression 5-LO [10, 12]: 1 | Change in Gene Expression 12-LO [10, 12]: 12 | Change in Gene Expression 15-LO [10, 12]: 4 | Change in Gene Expression IFN-γ [10, 12]: 4 | Change in Gene Expression IL-12p40 [10, 12]: 3 | IC50 [11]: > 150 µM
